The test system of series [1] is RAW264.7 macrophages. In words: Linear diattenuation anisotropy microscopy (LC-PolScope) of intracellular inclusions. It is filed as cell-based. The conditions noted are these: 72 h, compared with clofazimine. Here is the method:
The optical design was built on a Nikon Eclipse Ti microscope equipped with the liquid crystal universal compensator consisting of a linear polarizer and a pair of liquid crystal devices. The LC compensator was part of the transillumination path and was used to illuminate the specimen with monochromatic, linearly polarized light of varying polarization orientation. There was no polarization analyzer present in the imaging path. Quantitative intensity images were recorded by a charge‐coupled device camera and a desktop computer calculated the average transmittance, the differential transmittance and the polarization orientation leading to maximum transmittance for each optically resolved picture element (pixel). Acquisition and processing steps were controlled using OpenPolScope plugins for the open source imaging programs ImageJ and Micro‐Manager (MMStudio version 1.4.15). With the combination of hardware and software, polarized light images were acquired at high sensitivity and high spatial resolution for measuring linear diattenuation.
Linear Diattenuation Microscopy Data Acquisition and Analysis: After RAW264.7 macrophages or MDCK epithelial cells were incubated with the compound in the chambered cover glasses for 72 h, at the same time of performing transmitted microscopic examination, cell specimens were examined under linear diattenuation microscopy using the Nikon Eclipse Ti microscope with 40×/0.75 NA objective and monochromatic light of two different center wavelengths, 546 and 623 nm (passband 30 nm). In the OpenPolScope software, Pol‐Acquisition and Pol‐Analyzer plugins (version 2.0) were used to capture, process, and analyze the attenuation images. Before imaging the samples, the setup was calibrated using a specially prepared slide featuring four small pieces of linear polarization filters. The transmission axes of the filters were oriented in steps of 45° providing a means to calibrate the LC universal compensator settings. After the calibration, a sample slide was inserted and first a sequence of polarized light images of a clear, fully transmitting sample area was recorded, followed by an image sequence featuring the cells under investigation. The images of the clear area were used to determine instrument factors which were needed for computing the average and the polarization dependent loss in transmittance in cellular components visible in the second image.10
Linear diattenuation is a material property that can occur in materials such as crystals, in which the light absorbing molecules are arranged with a preferred orientation. The molecular alignment creates principal axes in the material denoting polarization directions for which light is maximally and minimally transmitted. Diattenuation is the difference between maximal (T max) and minimal (T min) transmittance, divided by their sum (Equation (1)): (1) Diattenuation=Tmax‐Tmin/Tmax+Tmin
To simultaneously measure the attenuation of many crystals with arbitrary orientations, we developed algorithms based on four specimen images, each recorded using light of a different polarization orientation: 0°, 45°, 90°, and 135°.10 The four raw images were used to calculate the average and differential transmittance and the orientation of maximum transmittance in every resolved image pixel. To isolate and analyze quantitative data of the objects (crystals), the anisotropy or maximum transmittance axis orientation image file opened in ImageJ was inverted (Ctrl + Shift + I) and thresholded using ImageJ's default automatic method (“Binary” → “Convert to Mask”). By using the ImageJ's algorithm, “Analyze Particles,” data of anisotropy or maximum transmittance axis orientation of objects in images could be obtained automatically. Diattenuation ratios were calculated by dividing anisotropy at 623 nm by that at 546 nm.

For series [2], the system named is RAW264.7 macrophages. As to the kind of experiment: Cell accumulation experiment, transmitted light microscopy of cellular staining pattern. As to conditions: for Inferred uptake: inferred from staining pattern after 72 hour incubation; for Observed cellular staining pattern (Notes): live cells, 72 hour incubation, 5 × 10^−6 M (2.5 × 10^−6 M for I); for Cellular staining relative to clofazimine: live macrophages, 72 h; for Staining in fixed cells: methanol-fixed cells incubated 72 h with compound (control). It counts as cell-based.

Take `C[C@@H](CN=c1cc2n(-c3ccc(Cl)cc3)c3ccccc3nc-2cc1Nc1ccc(Cl)cc1)c1ccccc1` [Compound U]: in series [1], the “Diattenuation anisotropy of intracellular inclusions” value is reported as “even higher anisotropy”. In series [2], the Inferred uptake entry is given as “Good”, the “Observed cellular staining pattern (Notes)” value is reported as “Fibrous/crystal-like brown inclusions with orange perinuclear vesicles are present in live cells”, the “Cellular staining relative to clofazimine” value is “prominent cellular staining” and the “Staining in fixed cells” value is given as “absent in fixed cells”.
The matching figures for `Clc1ccc(Nc2cc3nc4ccccc4n(-c4ccc(Cl)cc4)c-3cc2=NCCc2ccccc2)cc1` [Compound P]: “higher diattenuation anisotropy”, “Excellent”, “Large fibrous/crystal-like brown inclusions present in live cells”, “more prominent staining patterns” and “absent in fixed cells”.

The values are drawn from paper PMC4569013, “Massive Bioaccumulation and Self‐Assembly of Phenazine Compounds in Live Cells” (Advanced Science, 2015).
